{
  "source": "patent US20170216297A1",
  "about": "“EFFICIENT INHIBITION OF HSP27” (TECHNISCHE UNIVERSITAET DRESDEN, priority 2014, published 2017)",
  "data": [
    {"molecular_target": "T1, HSP27 (Homo sapiens, UniProt P04792)", "T1 sequence (P04792 whole entry)": "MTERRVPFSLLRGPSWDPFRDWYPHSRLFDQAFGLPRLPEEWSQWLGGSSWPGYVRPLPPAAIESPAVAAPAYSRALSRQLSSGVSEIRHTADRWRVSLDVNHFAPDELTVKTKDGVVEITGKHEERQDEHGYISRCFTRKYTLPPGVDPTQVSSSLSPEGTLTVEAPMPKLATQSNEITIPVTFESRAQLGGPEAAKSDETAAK", "experiment": "Capillary electrophoresis of the CS protein precipitates (precipitated citrate synthase as measure of HSP27 inhibition)", "format": "biochemical", "settings": "10 μmol/L; 43° C. for 70 minutes; 750 μmol/L BVDU set at 1", "experimental": "(§1) Since the heat-denatured protein aggregates of the citrate synthase from Example 1 are not water-soluble, these can be separated completely from the supernatant by means of centrifugation at room temperature at 16,000×g, 10 min. By using capillary electrophoresis, the compositions of the separated precipitates can be shown and quantified. The relative quantity of protein of precipitated citrate synthase serves as a measure of the efficacy of the test substances.\n(§2) In each case, 481 nmol/L HSP27 and 1.44 μmol/L citrate synthase in 40 mmol/L HEPES buffer, pH 7.4, were employed. The relative quantity of protein of the precipitated citrate synthase in each case was normalized using a defined quantity of BSA as internal standard. The relative quantity of protein that precipitated when using 750 μmol/L BVDU was set at 1. The other test substances (2 representatives of phenothiazine derivatives of general formula (V), 2 representatives of purine derivatives of formula (I) or (II)) were each employed at a concentration of 10 μmol/L.\nas §1, with “Example 2” for “Example 1”\nas §2, with “nM” for “nmol/L”, “thymine” for “purine”, “were” for “were each”, “μmol/L in each case.” for “μmol/L.”\nOtherwise, the experiments were performed as described above: […]", "values": [
      {"molecule": "Cc1cn(C2C[C@H](n3cc(-c4cccc(Br)c4)nn3)[C@@H](CO)O2)c(=O)[nH]c1=O", "note": "(stereo partly drawn) [1-[(4S,5S)-4-[4-(3-Bromophenyl)-1H-1,2,3-triazol-1-yl]-5-(hydroxymethyl)oxolan-2-yl]-5-methyl-1,2,3,4-tetrahydropyrimidine-2,4-dione]", "Rel. quantity of protein prec. CS": 0.81},
      {"molecule": "Cc1cn(C2C[C@H](n3cc(-c4ccc(Br)cc4)nn3)[C@@H](CO)O2)c(=O)[nH]c1=O", "note": "(stereo partly drawn) [1-[(4S,5S)-4-[4-(4-Bromophenyl)-1,2,3-triazol-1-yl]-5-(hydroxymethyl)oxolan-2-yl]-5-methyl-3H-pyrimidine-2,4-dione]", "Rel. quantity of protein prec. CS": 0.64},
      {"molecule": "COc1ccc(-c2cn([C@H]3CC(n4cc(C)c(=O)[nH]c4=O)O[C@@H]3CO)nn2)cc1", "note": "(stereo partly drawn) [1-[(4S,5S)-5-(Hydroxymethyl)-4-[4-(4-methoxyphenyl)-1,2,3-triazol-1-yl]oxolan-2-yl]-5-methyl-3H-pyrimidine-2,4-dione]", "Rel. quantity of protein prec. CS": 0.75},
      {"molecule": "CCCCc1cn([C@H]2C[C@H](n3cc(C)c(=O)[nH]c3=O)O[C@@H]2CO)nn1", "note": "[3′-(4-Butyl-1H-1,2,3-triazol-1-yl)-3′-deoxythymidine]", "Rel. quantity of protein prec. CS": 0.76},
      {"molecule": "CCCCCc1cn([C@H]2C[C@H](n3cc(C)c(=O)[nH]c3=O)O[C@@H]2CO)nn1", "note": "[3′-Deoxy-3′-(4-pentyl-1H-1,2,3-triazol-1-yl)thymidine]", "Rel. quantity of protein prec. CS": 0.70},
      {"molecule": "Cc1cn([C@H]2C[C@H](n3cc(-c4ccccc4)nn3)[C@@H](CO)O2)c(=O)[nH]c1=O", "note": "[3′-Deoxy-3′-(4-phenyl-1H-1,2,3-triazol-1-yl)thymidine]", "Rel. quantity of protein prec. CS": 0.79},
      {"molecule": "CCCc1cn([C@H]2C[C@H](n3cc(C)c(=O)[nH]c3=O)O[C@@H]2CO)nn1", "note": "[3′-Deoxy-3′-(4-propyl-1H-1,2,3-triazol-1-yl)thymidine]", "Rel. quantity of protein prec. CS": 0.79},
      {"molecule": "Cc1cn([C@H]2C[C@H](n3cc(C(C)(C)C)nn3)[C@@H](CO)O2)c(=O)[nH]c1=O", "note": "[3′-Deoxy-3′-[4-(2-methyl-2-propanyl)-1H-1,2,3-triazol-1-yl]thymidine]", "Rel. quantity of protein prec. CS": 0.61},
      {"molecule": "Cc1cn([C@H]2C[C@H](n3cc(CCc4ccccc4)nn3)[C@@H](CO)O2)c(=O)[nH]c1=O", "note": "[3′-Deoxy-3′-[4-(2-phenylethyl)-1H-1,2,3-triazol-1-yl]-thymidine]", "Rel. quantity of protein prec. CS": 0.74},
      {"molecule": "Cc1cn([C@H]2C[C@H](n3cc(-c4ccccn4)nn3)[C@@H](CO)O2)c(=O)[nH]c1=O", "note": "[3′-Deoxy-3′-[4-(2-pyridinyl)-1H-1,2,3-triazol-1]-yl]thymidine]", "Rel. quantity of protein prec. CS": 0.84},
      {"molecule": "Cc1cn([C@H]2C[C@H](n3cc(-c4ccc(Cl)c(Cl)c4)nn3)[C@@H](CO)O2)c(=O)[nH]c1=O", "note": "[3′-Deoxy-3′-[4-(3,4-dichlorophenyl)-1H-1,2,3-triazol-1-yl]-thymidine]", "Rel. quantity of protein prec. CS": 0.86},
      {"molecule": "Cc1cn([C@H]2C[C@H](n3cc(-c4ccc(F)cc4)nn3)[C@@H](CO)O2)c(=O)[nH]c1=O", "note": "[3′-Deoxy-3′-[4-(4-fluorophenyl)-1H-1,2,3-triazol-1-yl]-thymidine]", "Rel. quantity of protein prec. CS": 0.66},
      {"molecule": "Cc1cn([C@H]2C[C@H](n3cc(-c4ccc(Cl)cc4)nn3)[C@@H](CO)O2)c(=O)[nH]c1=O", "note": "[3′-[4-(4-Chlorophenyl)-1H-1,2,3-triazol-1-yl]-3′-deoxythymidine]", "Rel. quantity of protein prec. CS": 0.67},
      {"molecule": "Cc1cn([C@H]2C[C@H](n3cc(CC4CCCC4)nn3)[C@@H](CO)O2)c(=O)[nH]c1=O", "note": "[3′-[4-(Cyclopentylmethyl)-1H-1,2,3-triazol-1-yl]-3′-deoxythymidine]", "Rel. quantity of protein prec. CS": 0.66},
      {"molecule": "Cc1cn(CCCCNC(=O)C(c2ccccc2)c2ccccc2)c(=O)[nH]c1=O", "note": "[N-[4-(5-Methyl-2,4-dioxo-3H-pyrimidin-1-yl)butyl]-2,2-diphenylacetamide]", "Rel. quantity of protein prec. CS": 0.79},
      {"molecule": "Cc1cn(CCCCNC(=O)Cc2ccc(-c3ccccc3)cc2)c(=O)[nH]c1=O", "note": "[N-[4-(5-Methyl-2,4-dioxo-3H-pyrimidin-1-yl)butyl]-2-(4-phenylphenyl)acetamide]", "Rel. quantity of protein prec. CS": 0.67},
      {"molecule": "Cc1cn(CCCCNC(=O)Cc2ccc3ccccc3c2)c(=O)[nH]c1=O", "note": "[N-[4-(5-Methyl-2,4-dioxo-3H-pyrimidin-1-yl)butyl]-2-(naphthalen-2-yl)acetamide]", "Rel. quantity of protein prec. CS": 0.75},
      {"molecule": "Cc1cn(CCCCNC(=O)C2c3ccccc3-c3ccccc32)c(=O)[nH]c1=O", "note": "[N-[4-(5-Methyl-2,4-dioxo-3H-pyrimidin-1-yl)butyl]-9H-fluorene-9-carboxamide]", "Rel. quantity of protein prec. CS": 0.58},
      {"molecule": "Cc1cn(CCCCNC(=O)C2c3ccccc3Oc3ccccc32)c(=O)[nH]c1=O", "note": "[N-[4-(5-Methyl-2,4-dioxo-3H-pyrimidin-1-yl)butyl]-9H-xanthene-9-carboxamide]", "Rel. quantity of protein prec. CS": 0.68},
      {"molecule": "O=C(Cc1ccc(-c2ccccc2)cc1)NC/C=C\\Cn1ccc(=O)[nH]c1=O", "note": "[N-[(2Z)-4-(2,4-Dioxo-3H-pyrimidin-1-yl)but-2-en-1-yl]-2-(4-phenylphenyl)acetamide]", "Rel. quantity of protein prec. CS": 0.88},
      {"molecule": "O=C(NC/C=C\\Cn1ccc(=O)[nH]c1=O)C1c2ccccc2OC2C=CC=CC21", "note": "(stereo not drawn) [N-[(2Z)-4-(2,4-Dioxo-3H-pyrimidin-1-yl)but-2-en-1-yl]-9,9a-dihydro-4aH-xanthene-9-carboxamide]", "Rel. quantity of protein prec. CS": 0.85},
      {"molecule": "Cc1cn(C/C=C\\CNC(=O)C(c2ccccc2)c2ccccc2)c(=O)[nH]c1=O", "note": "[N-[(2Z)-4-(5-Methyl-2,4-dioxo-3H-pyrimidin-1-yl)but-2-en-1-yl]-2,2-diphenylacetamide]", "Rel. quantity of protein prec. CS": 0.82},
      {"molecule": "Cc1cn(C/C=C\\CNC(=O)Cc2cccc3ccccc23)c(=O)[nH]c1=O", "note": "[N-[(2Z)-4-(5-Methyl-2,4-dioxo-3H-pyrimidin-1-yl)but-2-en-1-yl]-2-(naphthalen-1-yl)acetamide]", "Rel. quantity of protein prec. CS": 0.81},
      {"molecule": "Cc1cn(C/C=C\\CNC(=O)Cc2ccc3ccccc3c2)c(=O)[nH]c1=O", "note": "[N-[(2Z)-4-(5-Methyl-2,4-dioxo-3H-pyrimidin-1-yl)but-2-en-1-yl]-2-(naphthalen-2-yl)acetamide]", "Rel. quantity of protein prec. CS": 0.83},
      {"molecule": "Cc1cn(C/C=C\\CNC(=O)C2c3ccccc3-c3ccccc32)c(=O)[nH]c1=O", "note": "[N-[(2Z)-4-(5-Methyl-2,4-dioxo-3H-pyrimidin-1-yl)but-2-en-1-yl]-9H-fluorene-9-carboxamide]", "Rel. quantity of protein prec. CS": 0.86},
      {"molecule": "Cc1cn(C/C=C\\CNC(=O)c2cccc3ccccc23)c(=O)[nH]c1=O", "note": "[N-[(2Z)-4-(5-Methyl-2,4-dioxo-3H-pyrimidin-1-yl)but-2-en-1-yl]naphthalene-1-carboxamide]", "Rel. quantity of protein prec. CS": 0.78}
    ]},
    {"molecular_target": "T1, HSP27", "experiment": "Bio-layer interferometry (ForteBio Octet Red 384, biotinylated HSP27 on SSA sensors)", "format": "binding", "settings": "analytes 1.23-300 μM/l, PBST 0.1% Tween 20 plus 3% DMSO; read-out: Dissociation constant KD", "text": "(§3) Bio-layer interferometry is a technique for detecting biomolecular interactions. It is an analytical technique that measures the optical interference of white light which is reflected by two surfaces: in each case, one surface consists of a layer of the immobilized target protein on the tip of the biosensor and one is an internal reference surface. The binding of ligands to the target protein alters the interference pattern and can be measured in real time.\n(§4) For the measurements, an instrument of the ForteBio Octet Red 384 brand was used. The target protein HSP27 was biotinylated and bound to the appropriate sensors (SSA). […] The purine derivatives of general formula (I) or (II) pre-identified by means of in silico screening are employed for these measurements in a concentration range (KD) of between 333 μmol/L and 10 nmol/L.\n(§5) For measurements by bio-layer interferometry, biotinylated HSP27 protein was first bound to Super-Streptavidin sensors (SSA, Fortebio). The loaded sensors were then incubated (“quenched”) with biocytin. As reference, unloaded SSA sensors were incubated with biocytin. In the case of a specific binding to HSP27 of the analyte to be measured, the loaded HSP27 sensor generates a stronger signal (response) than the concurrent reference sensor. After the “baseline” has been established by incubation with the reaction buffer (PBST 0.1% Tween 20 plus 3% DMSO), first the association and then the dissociation of the respective analyte is measured in real time. The analytes were measured in increasing concentrations in each case: 1.23-3.7-11.11-33.33-100-300 μM/l.", "units": {"Kd": "µM"}, "values": [
      {"molecule": "O=c1nc(Nc2cccc(CO)c2)[nH]c2nc[nH]c12", "note": "[2-(3-Hydroxymethylphenylamino)-3,7-dihydropurin-6-one]", "Kd": 710},
      {"molecule": "O=c1[nH]c(=O)n([C@H]2C[C@H](O)[C@@H](CO)O2)cc1-c1ccccc1", "note": "[5-Phenyl-2′-deoxyuridine]", "Kd": 60}
    ]},
    {"molecular_target": "T1, HSP27", "experiment": "Bio-layer interferometry (ForteBio Octet Red 384, biotinylated HSP27 on SSA sensors)", "format": "binding", "settings": "bio-layer interferometry; read-out: KD", "text": "as §3, §4, §5", "units": {"Kd": "µM"}, "values": [
      {"molecule": "CN(C)CCCN1c2ccccc2Sc2ccc(Cl)cc21", "note": "[Chlorpromazine, reference compound]", "Kd": 770}
    ]},
    {"tested_on": "RPMI-8226 cells", "experiment": "Development of resistance to bortezomib in RPMI-8226 cells", "format": "cell-based", "settings": "bortezomib 0.2-0.4 ng/ml, plus 0.5 μmol/L inhibitor", "experimental": "The cell line RPMI-8226 (DMSZ 402) is a “multiple myeloma” cell line and was chosen because bortezomib is employed as a standard therapy for multiple myeloma. RPMI-8226 cells respond to bortezomib, express HSP27 and develop resistance to Velcade. RPMI-8226 cells were seeded at a cell count of 100,000 cells/ml in each case and regularly passaged. […] In contrast, for RPMI 8226 cells that were treated with 30 μmol/L BVDU, a final cell count of 160,000 cells/ml was detected whereas the final cell count for the culture without the addition of an HSP27 inhibitor amounted to 350,000 cells/ml. As a control, RPMI 8226 cells were treated with the respective test substances alone, FIG. 4b.", "values": [
      {"molecule": "CN(C)CCCN1c2ccccc2Sc2ccc(Cl)cc21", "note": "[Chlorpromazine, reference compound]", "development of resistance to bortezomib": "significantly inhibited"}
    ]}
  ]
}
